In patent publication US9303009B2, “Migrastatins and uses thereof” (Sloan-Kettering Institute for Cancer Research, priority 2011, dated 2016):

Key:
H1975 = assay: transwell migration (modified Boyden chamber, serum gradient); assay type: cell-based; conditions: Homo sapiens, NCI-H1975, 12 hour migration, mean +/- SEM of three experiments, read-out: IC50, inhibition of transwell migration
Method: Migration assay: Cancer cell chemotaxis was performed towards a serum gradient in a modified Boyden chamber consisting of a cell culture insert (6.4 mm diameter, 8-μm pore polyethylene tetraphtalate membrane, [Becton Dickenson]) seated in each well of a 24-well companion plate (Becton Dickinson). Briefly, cancer cells were grown as subconfluent monolayer cultures then starved for 36 hours in serum-free M5 medium. After detachment and dissociation with 5 mM EDTA, single-cell suspensions were prepared by filtration through a 35 μm mesh cell strainer (Becton Dickinson). Cells were counted and a total of 10^5 cells suspended in serum-free medium were seeded into the upper chamber of an insert, then positioned in a 24-well plate, containing medium with or without 10% serum. […] For quantification, three randomly selected fields on the lower side of the insert were photographed at 4× and 20× magnification using computer-assisted microscopy, and analyzed with CellProfiler2.0 cell image analysis software). The migration in response to the test condition was calculated relative to the DMSO vehicle control. […]
Lung Cancer cell lines chemotaxis was performed in cell culture inserts after serum starvation and an overnight preincubation with an incremental logarithmic scale of drug concentration (ME and CME from 10^−3 to 10^−10M). […] Data are expressed as the mean+/−SEM of three independent experiments. […]

AC3-TGL cells = assay: human SCLC xenograft model, Example 17; assay type: in vivo; conditions: for tumor growth kinetics at the primary site of injection: all doses
Method: Evaluation of the anti-metastatic activity of ME (19) and CME (25) in a human SCLC xenograft model. These cells, in primary and subsequent in vivo passages in NOD/SCID mice, tend to form liver metastases. The tumor cells were stably transduced with a triple-fusion protein reporter construct (AC3-TGL), and then transplanted by subcutaneous injection with matrigel into NOD/SCID IL2R gamma null (NSG) mice.
Starting 1 day prior to the inoculation of tumor cells, groups of mice were treated with ME at doses of 10 mg/kg, 40 mg/kg, or 200 mg/kg, or with CME at 12 mg/kg or 49 mg/kg (note: dosage levels were adjusted to account for differences in molecular weight: 1 mg ME=1.2 mg CME). Control mice were treated with DMSO vehicle. The compounds were administered by i.p. injection every three days, from Day −1 to Day 55 following cell injection (n≧5 mice per group). During this time, tumor burden and metastatic spread were monitored by serial non-invasive bioluminescent imaging (BLI) at Days 14, 23, 30, 40, and 50. At Day 55, the mice were sacrificed and the metastatic spread of tumor cells to the lungs, liver, heart, kidneys, and spleen was assessed by ex-vivo BLI on the removed organs.
For the results depicted in FIGS. 7a-b: AC3-TGL cells were transplanted by subcutaneous ventral injection into NSG mice. Xenografted mice were treated with indicated dosages of CME or ME every 3 days starting 1 day prior to the inoculation of tumor cells: ME 10 mg/kg (ME10, n=5), 40 mg/kg (ME40, n=5), 200 mg/kg (ME200, n=5), CME 12 mg/kg (CME12, n=5), 49 mg/kg (CME49, n=5) and DMSO vehicle (control, n=6). At day 55, the mice were sacrificed. Three mice in the ME200 group died before the end of treatment. Tumor metastasis at endpoint: At day 55, mice were analyzed for metastasis by ex vivo BLI quantifying luciferase activity in the excised lungs, (Lu), liver (Li), heard (H), kidneys (K), and the spleen (S). Measurements for each mouse are presented in FIG. 7a (circles), with the average per group (short line) and expressed as photon flux (flux in photon/sec) in log scale. P-values were obtained using two-tailed Mann-Whitney U-test. Each picture is presented with the same settings (4 min exposure, photon signal, color scale from 3.10^4 (min) to 5.10^6 (max)).
Xenograft Model for Example 17: A human primary SCLC xenograft model was developed in 10-14 weeks old male NSG mice. Primary tumor samples were obtained after patient informed consent under an MSKCC IRB approved protocol. AC3-TGL tumor cells growing as clumps were dissociated into a single-cell suspension by Trypsin/Collagenase IV (Invitrogen) sequential treatment. Xenografts were performed by subcutaneous ventral injection of 500 AC3-TGL cells in serum-free medium mixed with Matrigel (Becton Dickinson).
One day prior to the tumor cell injection, mice were pretreated with either: (1) Migrastatin Ether (ME) at a dose of 10 mg/kg, 40 mg/kg or 200 mg/kg per mouse; (2) Carboxymethyl-ME (CME) at a dose of 12 mg/kg or 49 mg/kg; or (3) DMSO vehicle control (n≧5 mice per group). Drug treatment was delivered by intraperitoneal injection every 3 days starting from day −1 after cell injection to day 55. During this time, the tumor burden and metastatic spread were monitored by bioluminescence imaging (BLI) at day 14, 23, 30, 40, and 50. At day 55 (endpoint), the mice were killed and the metastatic spread of tumor cells to the lungs, liver, heart, kidneys, and spleen was assessed by ex-vivo BLI on the surgically resected organs.

[1] = system: A549, H1975, and H299 cancer cells; assay: transwell migration, panel of NSCLC lines; assay type: cell-based, human; conditions: for IC50: Homo sapiens, range over A549, H1975 and H299, read-out: IC50 values across cell lines; for toxicity and effects on cell proliferation: in the millimolar range
Method: Migration assay: Cancer cell chemotaxis was performed towards a serum gradient in a modified Boyden chamber consisting of a cell culture insert (6.4 mm diameter, 8-μm pore polyethylene tetraphtalate membrane, [Becton Dickenson]) seated in each well of a 24-well companion plate (Becton Dickinson). Briefly, cancer cells were grown as subconfluent monolayer cultures then starved for 36 hours in serum-free M5 medium. After detachment and dissociation with 5 mM EDTA, single-cell suspensions were prepared by filtration through a 35 μm mesh cell strainer (Becton Dickinson). Cells were counted and a total of 10^5 cells suspended in serum-free medium were seeded into the upper chamber of an insert, then positioned in a 24-well plate, containing medium with or without 10% serum. When used, drugs or DMSO (vehicle) were added to the medium at 0.2% in both chambers. Migration assays were carried out for 12 hours in a humidified incubator at 37° C. with 5% CO2. Cells were then fixed with 3.7% formaldehyde, permeabilized with ice cold methanol and stained with a 0.2% Crystal violet solution. Non-migratory cells on the upper side of the insert were removed with a cotton swab. For quantification, three randomly selected fields on the lower side of the insert were photographed at 4× and 20× magnification using computer-assisted microscopy, and analyzed with CellProfiler2.0 cell image analysis software). The migration in response to the test condition was calculated relative to the DMSO vehicle control.
This assay provided reproducibly robust data, allowing dose-response studies to be carried out to determine the half maximal inhibitory concentration (IC50). […] Because we noticed a mild toxicity and effects on cell proliferation in the millimolar range, experiments with CME and ME at 1 mM or more were not included for the IC50 calculation.
Lung Cancer cell lines chemotaxis was performed in cell culture inserts after serum starvation and an overnight preincubation with an incremental logarithmic scale of drug concentration (ME and CME from 10^−3 to 10^−10M). Cancer cell migration in response to a serum gradient was measured after a 12 hour-long incubation in presence of different concentrations of ME or CME in both upper and lower chamber (three wells at each dose). Cells were then fixed and stained with Crystal violet, and photographed. […] Data are expressed as the mean+/−SEM of three independent experiments. Each experiment was performed in triplicate.

SMILES	IC50 (H1975) [nM]	deaths prior to the study endpoint (AC3-TGL cells; 10 mg/kg group) [mice]	Inhibition factor (IF) of overall metastasis (AC3-TGL cells; 10 mg/kg i.p. every 3 days, day 55) [%]	deaths prior to the study endpoint (AC3-TGL cells; 40 mg/kg group) [mice]	Inhibition factor (IF) of overall metastasis (AC3-TGL cells; 40 mg/kg i.p. every 3 days, day 55) [%]	deaths prior to the study endpoint (AC3-TGL cells; 200 mg/kg group) [mice]	Inhibition factor (IF) of overall metastasis (AC3-TGL cells; 200 mg/kg i.p. every 3 days, day 55, 2 surviving mice) [%]	tumor growth kinetics at the primary site of injection (AC3-TGL cells)	IC50 [1] [nM]	toxicity and effects on cell proliferation [1]	Inhibition factor (IF) of overall metastasis (AC3-TGL cells; 12 mg/kg i.p. every 3 days, day 55) [%]	toxicity (AC3-TGL cells; 12 mg/kg or 49 mg/kg cohorts)	Inhibition factor (IF) of overall metastasis (AC3-TGL cells; 49 mg/kg i.p. every 3 days, day 55) [%]	potency relative to ME in inhibiting in vivo metastasis (AC3-TGL cells; at the lowest dosage level)
CO[C@H]1/C=C/CCCCCOC/C(C)=C\[C@@H](C)[C@@H]1O [ME, migrastatin ether]	1510 ± 690	2	96.2	2	99.1	3	99.8	did not significantly affect	1500 to 8200	mild toxicity				
CO[C@H]1/C=C/CCCCCOC/C(C)=C\[C@@H](C)[C@@H]1OCC(=O)O [CME, Carboxymethyl migraether]	510 ± 420							did not significantly affect	500 to 5000	mild toxicity	99.3	no toxicity was observed	99.8	approximately 4 times
